Results as given in the kinase profiling compilation of Christmann-Franck et al. (2016).

Columns and labels:
Experiment in all cases: KINOMEscan competition binding
Details in all cases: compound 10.0 µM
[1] = target: STK38L (human) (UniProt Q9Y2H1)
[2] = target: ULK2 (human) (UniProt Q8IYT8)
[3] = target: MAPK13 (human) (UniProt O15264)
[4] = target: PIK3C2B (human) (UniProt O00750)
[5] = target: STK11 (human) (UniProt Q15831)
[6] = target: PAK3 (human) (UniProt O75914)
[7] = target: CDK18 (human) (UniProt Q07002)
Chain of CDK18 (human) (Q07002 whole entry, looked up): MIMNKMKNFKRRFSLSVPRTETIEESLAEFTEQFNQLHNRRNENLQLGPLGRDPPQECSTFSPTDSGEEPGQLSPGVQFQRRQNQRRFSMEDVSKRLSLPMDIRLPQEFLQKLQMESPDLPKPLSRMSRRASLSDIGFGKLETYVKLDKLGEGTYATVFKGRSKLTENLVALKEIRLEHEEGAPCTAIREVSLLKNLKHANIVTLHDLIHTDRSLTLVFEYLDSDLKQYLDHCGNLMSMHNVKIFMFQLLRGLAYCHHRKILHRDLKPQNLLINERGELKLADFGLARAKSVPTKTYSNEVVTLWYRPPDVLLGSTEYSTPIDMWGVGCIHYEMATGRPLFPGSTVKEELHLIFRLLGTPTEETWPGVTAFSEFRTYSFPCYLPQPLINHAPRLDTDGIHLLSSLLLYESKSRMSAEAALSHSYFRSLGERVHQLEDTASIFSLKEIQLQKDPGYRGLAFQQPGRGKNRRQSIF

[8] = target: CDK8 (human) (UniProt P49336)
Chain of CDK8 (human) (P49336 whole entry, looked up): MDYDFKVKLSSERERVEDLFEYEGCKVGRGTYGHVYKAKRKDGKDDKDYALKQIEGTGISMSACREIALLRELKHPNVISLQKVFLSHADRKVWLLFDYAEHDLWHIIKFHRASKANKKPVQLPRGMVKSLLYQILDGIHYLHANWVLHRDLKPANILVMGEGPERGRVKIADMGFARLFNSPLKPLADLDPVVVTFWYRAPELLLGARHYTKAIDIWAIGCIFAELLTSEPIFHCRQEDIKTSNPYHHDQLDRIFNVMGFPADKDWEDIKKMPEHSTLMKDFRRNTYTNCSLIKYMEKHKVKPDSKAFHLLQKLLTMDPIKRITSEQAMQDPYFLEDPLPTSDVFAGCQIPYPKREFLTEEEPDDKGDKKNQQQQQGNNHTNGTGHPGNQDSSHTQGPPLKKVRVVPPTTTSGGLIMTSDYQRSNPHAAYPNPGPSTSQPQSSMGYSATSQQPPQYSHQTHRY

[9] = target: CDK16 (human) (UniProt Q00536)
[10] = target: CDC42BPB (human) (UniProt Q9Y5S2)
[11] = target: MINK1 (human) (UniProt Q8N4C8)
[12] = target: MKNK1 (human) (UniProt Q9BUB5)
[13] = target: IKBKB (human) (UniProt O14920)
[14] = target: PAK2 (human) (UniProt Q13177)
[15] = target: CSNK1G1 (human) (UniProt Q9HCP0)
Chain of CSNK1G1 (human) (Q9HCP0 whole entry, looked up): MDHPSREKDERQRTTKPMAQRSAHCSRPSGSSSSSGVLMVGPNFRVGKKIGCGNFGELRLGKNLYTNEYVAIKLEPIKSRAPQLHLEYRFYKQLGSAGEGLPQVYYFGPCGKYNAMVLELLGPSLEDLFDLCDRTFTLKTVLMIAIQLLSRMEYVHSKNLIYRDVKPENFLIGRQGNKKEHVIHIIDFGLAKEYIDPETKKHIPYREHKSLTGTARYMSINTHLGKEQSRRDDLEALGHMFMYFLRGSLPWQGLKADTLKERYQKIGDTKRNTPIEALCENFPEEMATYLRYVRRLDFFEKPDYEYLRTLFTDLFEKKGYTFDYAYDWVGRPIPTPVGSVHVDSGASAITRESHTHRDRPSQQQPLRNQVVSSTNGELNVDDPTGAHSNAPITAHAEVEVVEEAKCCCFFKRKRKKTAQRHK

[16] = target: PRPF4B (human) (UniProt Q13523)
[17] = target: PIK3CA (human) (UniProt P42336)
[18] = target: STK25 (human) (UniProt O00506)
Chain of STK25 (human) (O00506 whole entry, looked up): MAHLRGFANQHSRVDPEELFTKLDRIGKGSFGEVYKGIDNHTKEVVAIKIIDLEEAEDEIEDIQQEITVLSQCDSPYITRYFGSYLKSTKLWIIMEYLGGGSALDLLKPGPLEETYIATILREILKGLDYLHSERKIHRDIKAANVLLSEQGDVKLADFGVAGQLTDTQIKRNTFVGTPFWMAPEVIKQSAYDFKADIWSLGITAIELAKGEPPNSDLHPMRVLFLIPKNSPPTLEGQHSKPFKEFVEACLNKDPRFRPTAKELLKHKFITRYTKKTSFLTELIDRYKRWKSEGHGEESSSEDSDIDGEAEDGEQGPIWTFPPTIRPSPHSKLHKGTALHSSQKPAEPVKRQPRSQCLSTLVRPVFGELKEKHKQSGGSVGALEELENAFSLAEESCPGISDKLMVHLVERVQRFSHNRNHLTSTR

[19] = target: CIT (human) (UniProt O14578)
[20] = target: SRPK1 (human) (UniProt Q96SB4)
[21] = target: ROCK2 (human) (UniProt O75116)
[22] = target: PRKG2 (human) (UniProt Q13237)
[23] = target: CDK14 (human) (UniProt O94921)
Chain of CDK14 (human) (O94921 whole entry, looked up): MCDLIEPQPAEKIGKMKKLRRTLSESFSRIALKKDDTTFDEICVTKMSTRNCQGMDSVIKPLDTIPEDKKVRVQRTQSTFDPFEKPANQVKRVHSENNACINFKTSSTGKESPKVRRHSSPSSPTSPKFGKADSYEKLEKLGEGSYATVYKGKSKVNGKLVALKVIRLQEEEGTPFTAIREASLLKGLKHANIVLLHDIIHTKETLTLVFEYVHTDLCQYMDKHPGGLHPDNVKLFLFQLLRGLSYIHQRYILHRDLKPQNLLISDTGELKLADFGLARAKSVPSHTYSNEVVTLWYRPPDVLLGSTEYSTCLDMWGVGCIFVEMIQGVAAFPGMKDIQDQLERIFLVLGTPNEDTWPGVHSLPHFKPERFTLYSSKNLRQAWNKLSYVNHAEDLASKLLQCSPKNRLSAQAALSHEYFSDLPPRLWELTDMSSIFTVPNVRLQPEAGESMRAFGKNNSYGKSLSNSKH

[24] = target: KDR (human) (UniProt P35968)
[25] = target: LYN (human) (UniProt P07948)
[26] = target: CDK11B (human) (UniProt P21127)
[27] = target: DCLK2 (human) (UniProt Q8N568)
[28] = target: STK38 (human) (UniProt Q15208)
[29] = target: GSK3A (human) (UniProt P49840)
[30] = target: CSNK1D (human) (UniProt P48730)
Chain of CSNK1D (human) (P48730 whole entry, looked up): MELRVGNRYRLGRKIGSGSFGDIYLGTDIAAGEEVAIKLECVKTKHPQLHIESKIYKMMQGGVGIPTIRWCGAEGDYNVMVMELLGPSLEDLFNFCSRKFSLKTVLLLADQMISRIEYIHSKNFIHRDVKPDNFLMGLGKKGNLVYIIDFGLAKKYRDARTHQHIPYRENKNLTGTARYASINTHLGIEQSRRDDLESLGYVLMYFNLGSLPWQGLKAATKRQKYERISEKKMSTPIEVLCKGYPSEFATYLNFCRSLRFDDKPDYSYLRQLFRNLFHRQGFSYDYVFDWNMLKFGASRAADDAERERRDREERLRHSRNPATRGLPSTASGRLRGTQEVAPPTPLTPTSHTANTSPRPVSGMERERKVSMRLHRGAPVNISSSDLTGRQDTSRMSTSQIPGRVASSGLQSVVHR

[31] = target: CDKL2 (human) (UniProt Q92772)
[32] = target: TLK2 (human) (UniProt Q86UE8)
[33] = target: EGFR (human) (UniProt P00533)
Chain of EGFR (human) (P00533 whole entry, looked up): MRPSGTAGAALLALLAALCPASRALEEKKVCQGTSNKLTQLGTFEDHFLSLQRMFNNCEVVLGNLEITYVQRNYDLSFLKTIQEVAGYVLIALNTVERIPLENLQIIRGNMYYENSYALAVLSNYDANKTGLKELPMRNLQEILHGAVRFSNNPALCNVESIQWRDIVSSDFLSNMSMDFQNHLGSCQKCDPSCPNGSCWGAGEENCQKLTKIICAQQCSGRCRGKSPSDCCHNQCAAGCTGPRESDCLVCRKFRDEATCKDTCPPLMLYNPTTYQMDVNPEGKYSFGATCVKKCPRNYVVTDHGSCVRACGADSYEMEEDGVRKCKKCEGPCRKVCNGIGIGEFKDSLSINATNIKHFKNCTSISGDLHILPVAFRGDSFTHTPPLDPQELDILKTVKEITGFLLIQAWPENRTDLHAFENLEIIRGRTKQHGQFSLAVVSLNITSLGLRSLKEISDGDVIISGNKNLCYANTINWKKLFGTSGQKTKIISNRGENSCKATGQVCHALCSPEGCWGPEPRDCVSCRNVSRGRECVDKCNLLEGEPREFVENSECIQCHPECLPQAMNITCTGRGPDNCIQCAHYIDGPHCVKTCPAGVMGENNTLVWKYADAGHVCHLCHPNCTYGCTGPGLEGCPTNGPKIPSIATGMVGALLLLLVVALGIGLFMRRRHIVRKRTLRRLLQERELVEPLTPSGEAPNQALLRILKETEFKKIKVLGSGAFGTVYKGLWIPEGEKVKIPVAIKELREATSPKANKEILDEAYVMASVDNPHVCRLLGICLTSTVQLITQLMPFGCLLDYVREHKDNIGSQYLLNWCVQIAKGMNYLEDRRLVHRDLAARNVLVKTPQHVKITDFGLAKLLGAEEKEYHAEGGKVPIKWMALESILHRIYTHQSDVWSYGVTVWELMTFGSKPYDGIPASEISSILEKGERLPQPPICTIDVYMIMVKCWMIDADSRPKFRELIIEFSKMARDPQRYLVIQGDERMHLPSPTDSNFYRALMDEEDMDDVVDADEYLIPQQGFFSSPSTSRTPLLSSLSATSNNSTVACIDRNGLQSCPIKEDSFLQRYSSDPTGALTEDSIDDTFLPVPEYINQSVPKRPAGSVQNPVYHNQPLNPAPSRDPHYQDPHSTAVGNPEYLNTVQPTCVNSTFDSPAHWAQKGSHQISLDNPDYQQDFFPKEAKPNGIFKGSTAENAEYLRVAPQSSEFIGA

[34] = target: RPS6KA2 KD1 (human) (UniProt Q15349)
[35] = target: CDKL3 (human) (UniProt Q8IVW4)
[36] = target: MST1R (human) (UniProt Q04912)
[37] = target: LATS2 (human) (UniProt Q9NRM7)
Chain of LATS2 (human) (Q9NRM7 whole entry, looked up): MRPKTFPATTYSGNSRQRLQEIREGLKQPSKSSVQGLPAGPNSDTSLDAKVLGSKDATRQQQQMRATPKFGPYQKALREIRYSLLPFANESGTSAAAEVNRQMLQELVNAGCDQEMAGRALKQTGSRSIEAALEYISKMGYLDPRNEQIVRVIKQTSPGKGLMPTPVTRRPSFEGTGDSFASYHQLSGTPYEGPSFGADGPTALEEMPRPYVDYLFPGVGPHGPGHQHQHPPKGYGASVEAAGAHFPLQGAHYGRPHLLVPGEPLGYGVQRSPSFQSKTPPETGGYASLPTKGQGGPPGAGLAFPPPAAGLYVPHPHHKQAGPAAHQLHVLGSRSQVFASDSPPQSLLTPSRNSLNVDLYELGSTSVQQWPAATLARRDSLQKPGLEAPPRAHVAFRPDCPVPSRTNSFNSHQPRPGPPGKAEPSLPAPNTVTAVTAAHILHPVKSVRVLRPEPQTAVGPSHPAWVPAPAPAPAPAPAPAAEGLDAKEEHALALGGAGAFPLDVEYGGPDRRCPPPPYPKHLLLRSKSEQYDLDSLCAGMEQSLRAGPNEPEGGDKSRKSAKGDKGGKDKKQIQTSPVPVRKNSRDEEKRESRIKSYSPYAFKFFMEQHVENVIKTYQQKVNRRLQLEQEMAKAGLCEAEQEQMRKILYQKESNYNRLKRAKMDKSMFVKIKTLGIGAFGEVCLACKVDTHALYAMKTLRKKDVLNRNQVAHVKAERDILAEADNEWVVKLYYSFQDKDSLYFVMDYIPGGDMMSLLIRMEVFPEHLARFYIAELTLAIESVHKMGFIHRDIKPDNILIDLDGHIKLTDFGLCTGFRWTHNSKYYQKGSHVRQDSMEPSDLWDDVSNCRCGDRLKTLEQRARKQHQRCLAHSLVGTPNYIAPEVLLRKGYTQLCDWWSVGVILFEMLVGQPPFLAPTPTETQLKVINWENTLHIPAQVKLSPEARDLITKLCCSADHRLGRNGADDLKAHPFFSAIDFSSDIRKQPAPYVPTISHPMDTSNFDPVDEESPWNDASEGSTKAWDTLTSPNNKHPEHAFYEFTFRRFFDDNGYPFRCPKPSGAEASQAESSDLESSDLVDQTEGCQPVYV

[38] = target: PDPK1 (human) (UniProt O15530)

kinase still bound, per cent of control [1] [%] | kinase still bound, per cent of control [2] [%] | kinase still bound, per cent of control [3] [%] | kinase still bound, per cent of control [4] [%] | kinase still bound, per cent of control [5] [%] | kinase still bound, per cent of control [6] [%] | kinase still bound, per cent of control [7] [%] | kinase still bound, per cent of control [8] [%] | kinase still bound, per cent of control [10] [%] | kinase still bound, per cent of control [11] [%] | kinase still bound, per cent of control [12] [%] | kinase still bound, per cent of control [13] [%] | kinase still bound, per cent of control [14] [%] | kinase still bound, per cent of control [15] [%] | kinase still bound, per cent of control [17] [%] | kinase still bound, per cent of control [18] [%] | kinase still bound, per cent of control [19] [%] | kinase still bound, per cent of control [20] [%] | kinase still bound, per cent of control [21] [%] | kinase still bound, per cent of control [22] [%] | other results | SMILES
100 | 0.5 | 100 | 100 | 100 | 100 | 100 | 100 | 100 | 100 | 100 | 100 | 100 | 100 | 100 | 100 | 100 | 100 | 100 | 100 | kinase still bound, per cent of control [9]: 100%; kinase still bound, per cent of control [16]: 100%; kinase still bound, per cent of control [23]: 100%; kinase still bound, per cent of control [24]: 100%; kinase still bound, per cent of control [25]: 100%; kinase still bound, per cent of control [26]: 100%; kinase still bound, per cent of control [27]: 0.45%; kinase still bound, per cent of control [28]: 100%; kinase still bound, per cent of control [29]: 100%; kinase still bound, per cent of control [30]: 100%; kinase still bound, per cent of control [31]: 100%; kinase still bound, per cent of control [32]: 100%; kinase still bound, per cent of control [33]: 100%; kinase still bound, per cent of control [34]: 100%; kinase still bound, per cent of control [35]: 100%; kinase still bound, per cent of control [36]: 100%; kinase still bound, per cent of control [37]: 100%; kinase still bound, per cent of control [38]: 100% | COc1cc(N2CCN(C)CC2)ccc1Nc1ncc2c(n1)N(C)c1ccccc1C(=O)N2C
100 | 100 | 100 | 22 | 100 | 100 | 100 | 100 | 100 | 100 | 100 | 100 | 100 | 100 | 0.15 | 100 | 100 | 100 | 100 | 100 | kinase still bound, per cent of control [16]: 100%; kinase still bound, per cent of control [23]: 100%; kinase still bound, per cent of control [24]: 100%; kinase still bound, per cent of control [25]: 100%; kinase still bound, per cent of control [26]: 100%; kinase still bound, per cent of control [27]: 100%; kinase still bound, per cent of control [28]: 100%; kinase still bound, per cent of control [29]: 100%; kinase still bound, per cent of control [30]: 100%; kinase still bound, per cent of control [31]: 100%; kinase still bound, per cent of control [32]: 100%; kinase still bound, per cent of control [33]: 100%; kinase still bound, per cent of control [34]: 100%; kinase still bound, per cent of control [35]: 100%; kinase still bound, per cent of control [36]: 100%; kinase still bound, per cent of control [37]: 100%; kinase still bound, per cent of control [38]: 100% | CS(=O)(=O)N1CCN(Cc2cc3nc(-c4cccc5[nH]ncc45)nc(N4CCOCC4)c3s2)CC1
100 | 100 | 4.9 | 100 | 100 | 100 | 100 | 100 | 100 | 100 | 100 | 100 | 100 | 100 | 100 | 100 | 100 | 100 | 100 | 100 | kinase still bound, per cent of control [9]: 100%; kinase still bound, per cent of control [23]: 100%; kinase still bound, per cent of control [24]: 0.45%; kinase still bound, per cent of control [25]: 5%; kinase still bound, per cent of control [26]: 100%; kinase still bound, per cent of control [27]: 100%; kinase still bound, per cent of control [29]: 100%; kinase still bound, per cent of control [30]: 100%; kinase still bound, per cent of control [31]: 0.35%; kinase still bound, per cent of control [32]: 100%; kinase still bound, per cent of control [33]: 0.35%; kinase still bound, per cent of control [34]: 100%; kinase still bound, per cent of control [36]: 100%; kinase still bound, per cent of control [37]: 100%; kinase still bound, per cent of control [38]: 100% | C=CC(=O)Nc1ccc(CN(C(=O)Nc2c(Cl)c(OC)cc(OC)c2Cl)c2cc(Nc3ccc(N4CCN(C)CC4)cc3)ncn2)cc1
